Among the data in patent US8173808B2, “Substituted naphthalenyl-pyrimidine compounds” (ArQule, Inc., priority 2009, dated 2012) are AKT activity, FGFR2 kinase activity and p70S6 kinase activity values, retold here.

Holding throughout (details): class symbol for inhibition
For assay [1], the target named is full length inactive AKT1 protein (Homo sapiens, UniProt P31749). The assay is described as follows: AKT activity; thermal shift binding assay. The protocol: Aliquots of compounds in DMSO (1 μL @ 375 μM) were placed in the V bottom 96 well PCR plate, and incubated for 30 minutes with 24 μL of AKT1 protein in 25 mM TRIS buffer pH 7.5, 100 mM NaCl, 0.1% 2-mercaptoethanol, pre-mixed with environmentally sensitive fluorescent dye Sypro Orange (12.5×). The plates were centrifuged for […] @ 2000 rpm and 25° C. before the analysis on the IQ5 Real time PCR machine (Biorad). The thermal stability of the protein-ligand complex was monitored by changes in Sypro Orange fluorescence while subjecting the binding mixture to a temperature gradient of 30 to 75° C. at 1° C./min heating rate. Shifts in the protein melting temperature (ΔTm) greater than 0.6° C. compared to the protein alone were indicative of the inhibitor binding. Dissociation constants (Kd's) for the inhibitors were calculated from the melting curves as described in Mei-Chu-Lo et al., Anal.Biochem., 332: 153, 2004.

In the next assay the test system is FGFR2 kinase. The assay is described as follows: FGFR2 kinase fluorescent ELISA assay. The assay is classed as biochemical. The protocol:
A fluorescent ELISA assay was developed to identify and characterize inhibitors of FGFR2 kinase. This heterogeneous assay utilizes a biotinylated peptide with a tyrosine motif as a substrate and an anti-phospho-tyrosine antibody to measure phosphorylation of the substrate. The reaction is initiated by adding test compound, 37 uM Pyk2 substrate (Midwest Biotech, cat. #MBT2383) and 12.5 μM ATP (Roche, cat. #11 140 965 001), and 0.5 μM FGFR2 enzyme (Millipore, cat. #14-742) sequentially to a non-binding polypropylene V-well plate. All reagents are in assay buffer consisting of: 50 mM Tris-HCL, 0.02 mg/mL BSA, 10 mM MgCl2, 0.1 mM Na3VO4, 1 mM EGTA, 75 μM ATP, 0.01% NP-40, 2 mM DTT, 10% Glycerol. The reaction is incubated for 60 minutes. As the reaction proceeds, FGFR2 phosphorylates tyrosines in the peptide. The reaction mixture is then moved to a blocked streptavidin coated Nunc Maxisorb plate (coated with 100 ng streaptavidin from Pierce (cat #15-124) per well) allowing for the capture of the biotinylated peptide. Peptide is captured for 30 minutes at room temperature, the phosphorylation of peptide continues during this phase. The reaction is stopped by washing the Streptavidin plate 6 times with TBST. Phosphorylated peptide is detected by adding anti-phospho tyrosine antibody (purchased from Cell Signaling, cat. #9411, diluted 1:3000), unbound antibody is removed by washing 6 times with TBST. Secondary detection is performed using Alkaline Phosphatase tagged goat anti-mouse antibody (purchased from Pierce, cat. #31320, diluted 1:4000) for one hour. Unbound secondary antibody is removed by washing 6 times with TBST.
The fluorescent readout is initiated by the addition of Promega Attophos substrate (purchased from Promega; Kit catalog number: S1000, dilution=6 mg/10 mL), which when dephosphorylated by Alkaline phosphatase emits a fluorescent signal of […] when excited by a signal […]. This reading is done on the Perkin Elmer Envision system. Compounds which prevent the FGFR2 from phosphorylating the peptide result in a lower fluorescent signal. The signal is directly proportional to the activity of FGFR2 and compound inhibition of FGFR2 is monitored by a decrease in signal.
A general note: In an ELISA, binding on a coated surface is turned into a signal by an enzyme label.

A further assay has as its target T1, p70S6K (Homo sapiens, UniProt P23443).
T1 construct: purchased Upstate/Millipore
Briefly: p70S6 kinase activity assay (HTRF). It counts as biochemical. The method, then: p70S6K activity was assayed using Cisbio's homogeneous time-resolved fluorescence (HTRF®) technology. The extent of phosphorylation of the biotinylated peptide substrate STK-S3 is determined using a phospho-specific STK Antibody labeled with Eu^3+-cryptate and streptavidin-XL665 that will bind to the biotin on the peptide. When in close proximity, excitation of the Eu^3+ cryptate donor fluorophore results in fluorescence resonance energy transfer (FRET) to the XL665 acceptor fluorophore and the emission signal from XL665 is measured.
The assay is performed using reagents from the HTRF® KinEASE™-STK kit from Cisbio including enzymatic buffer (50 mM HEPES pH7, 0.02% NaN3, 0.01% BSA, and 0.1 mM Na3VO4), STK-S3 substrate-biotin, Eu^3+-Cryptate labeled STK antibody, Streptavidin-XL665, and detection buffer (50 mM HEPES pH 7, 0.1% BSA, 0.8M KF, and 20 mM EDTA). Test inhibitors and controls (staurosporine) are prepared at 5× the desired final concentration. Test compound (5.0 μL), p70S6 (10 μL) from Upstate/Millipore (final concentration is 2.5 ng/well), and 10 μL substrate/ATP are added to each well of a reaction plate (Corning 96-well half-area solid black nonbinding surface plate). All reaction components are diluted in enzymatic buffer supplemented with 2 mM MgCl2 and 1 mM DTT. The final concentration of STK-S3 substrate is 500 nM and the final concentration of ATP is 100 μM.

T1 sequence (P23443 whole entry): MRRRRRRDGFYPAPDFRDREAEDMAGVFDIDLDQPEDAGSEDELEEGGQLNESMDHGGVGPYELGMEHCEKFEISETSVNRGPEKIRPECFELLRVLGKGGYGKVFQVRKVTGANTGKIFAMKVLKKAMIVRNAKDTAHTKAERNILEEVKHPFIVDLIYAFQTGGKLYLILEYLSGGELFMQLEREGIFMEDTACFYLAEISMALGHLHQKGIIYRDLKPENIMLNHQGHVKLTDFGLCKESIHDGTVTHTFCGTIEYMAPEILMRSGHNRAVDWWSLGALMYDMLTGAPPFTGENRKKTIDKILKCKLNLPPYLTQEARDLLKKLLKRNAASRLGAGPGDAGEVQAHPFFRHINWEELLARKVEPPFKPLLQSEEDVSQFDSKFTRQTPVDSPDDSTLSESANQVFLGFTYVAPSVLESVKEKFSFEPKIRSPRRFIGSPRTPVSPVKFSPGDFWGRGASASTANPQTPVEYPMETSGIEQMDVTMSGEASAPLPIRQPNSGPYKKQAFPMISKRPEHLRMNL
Chain of full length inactive AKT1 protein (P31749 whole entry): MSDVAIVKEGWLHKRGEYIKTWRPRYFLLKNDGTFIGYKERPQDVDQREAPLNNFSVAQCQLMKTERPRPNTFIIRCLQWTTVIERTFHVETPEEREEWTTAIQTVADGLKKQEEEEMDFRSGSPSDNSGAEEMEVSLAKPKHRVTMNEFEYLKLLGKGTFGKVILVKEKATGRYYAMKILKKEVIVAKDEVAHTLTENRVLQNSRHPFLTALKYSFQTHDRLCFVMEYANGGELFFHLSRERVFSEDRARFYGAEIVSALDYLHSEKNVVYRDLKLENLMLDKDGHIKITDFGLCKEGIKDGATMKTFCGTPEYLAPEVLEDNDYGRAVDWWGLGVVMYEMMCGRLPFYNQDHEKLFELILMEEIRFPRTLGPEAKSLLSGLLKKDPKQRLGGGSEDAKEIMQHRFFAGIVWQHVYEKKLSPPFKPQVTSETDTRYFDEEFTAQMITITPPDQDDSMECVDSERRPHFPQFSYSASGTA

As to “N-(3-(5-benzoyl-7-methyl-7H-pyrrolo[2,3-d]pyrimidin-4-ylamino)phenyl)acetamide [Compound 6a]”, the AKT activity entry in assay [1] is listed as “+ (A positive sign indicates that inhibition is greater or equal to 25%)”. In addition, the FGFR2 kinase activity entry in the assay with FGFR2 kinase is given as “− (A negative sign indicates that inhibition is less than 25%)”. The p70S6 kinase activity entry at p70S6K is recorded as “− (A negative sign indicates that inhibition is less than 25%)”.
With “N-(3-(5-benzoyl-7H-pyrrolo[2,3-d]pyrimidin-4-ylamino)phenyl)-2-(dimethylamino)acetamide [Compound 7a]”, in assay [1], the AKT activity result is “− (A negative sign indicates that inhibition is less than 25%)”. Moreover, the FGFR2 kinase activity result in the assay with FGFR2 kinase is “− (A negative sign indicates that inhibition is less than 25%)”. Also, the p70S6 kinase activity entry at p70S6K is “+ (A positive sign indicates that inhibition is greater or equal to 25%)”.
